Test results published in ChEMBL document CHEMBL3272305, “Synthesis and comparative skeletal muscle relaxant activity of some 2,4-imidazolidinediones and their corresponding 5-hydroxy-2,4-imidazolidinediones” (J Med Chem, 1978).
Active and inactive are the calls of the source. No cut-off for these calls is given here.

Legend:
Mus musculus [1] = test: Induction of skeletal muscle relaxation in ip dosed albino mouse after 60 mins; format: functional; conditions: 1 h
Rattus norvegicus [2] = test: Inhibition of gastrocnemius twitch in Sprague-Dawley rat at cumulative dose of 36.6 mg/kg, iv relative to control; format: functional
[3] = Toxicity in albino mouse after 72 hrs; format: organism-based; conditions: in vivo
Rattus norvegicus [4] = test: Inhibition of gastrocnemius twitch in iv dosed Sprague-Dawley rat; format: functional
[5] = (§1) Inhibition of twitch in Charles River rat diaphragm at 60 mg/L after 5 mins; format: functional
Mus musculus [6] = species: Mus musculus; test: Muscle relaxant efficacy index, ratio of ED50 for muscle incoordination in mouse to ED50 for induction of straub tail relaxation in albino mouse
Mus musculus [7] = test: Induction of skeletal muscle relaxation in po dosed albino mouse after 60 mins; format: functional; conditions: 1 h
Mus musculus [8] = species: Mus musculus; test: Induction of straub tail relaxation in albino mouse assessed as gain of righting reflex in 1 min; format: functional
Mus musculus [9] = species: Mus musculus; test: Induction of muscle incoordination in mouse after 30 mins by rotarod test; format: organism-based, Muscle tissue; conditions: in vivo, 0.5 h
[10] = Therapeutic index, ratio of LD50 for albino mouse to ED50 for induction of straub tail relaxation in albino mouse; format: organism-based; conditions: in vivo, read-out: Ratio LD50/ED50
Rattus norvegicus [11] = species: Rattus norvegicus; test: as §1; format: functional

| Compound | ED50 (Mus musculus [1]) | inhibition in vivo at 36.6 mg/kg (Rattus norvegicus [2]) | LD50 at 72 h [3] | ED50 (Rattus norvegicus [4]) | inhibition at 60 µg/mL [5] | Ratio ED50 (Mus musculus [6]) | ED50 (Mus musculus [7]) | ED50 (Mus musculus [8]) | ED50 (Mus musculus [9]) | selectivity ratio [10] | inhibition (Rattus norvegicus [11]) |
| --- | --- | --- | --- | --- | --- | --- | --- | --- | --- | --- | --- |
| N#Cc1ccc(-c2ccc(/C=N/N3C(=O)NC(=O)C3O)o2)cc1 (stereo not given) | 156 mg/kg | -69% | 104 mg/kg | 25 µmol/kg | ≥ 40% | 0.13 | > 1000 mg/kg | 743 mg/kg | 96 mg/kg | 0.14 |  |
| O=C1NC(=O)N(/N=C/c2ccc(-c3ccc(Cl)c(Cl)c3)o2)C1O (stereo not given) | 72 mg/kg | -82% | 209 mg/kg | 19 µmol/kg | ≥ 40% | 0.3 | 109 mg/kg | 34 mg/kg | 10 mg/kg | 6.1 |  |
| N#Cc1ccc(-c2ccc(/C=N/N3CC(=O)NC3=O)o2)cc1 | > 1000 mg/kg | -76% | 2340 mg/kg | 20 µmol/kg | ≥ 40% | <0.09 | > 1000 mg/kg | > 1000 mg/kg | 91 mg/kg |  |  |
| O=C1CN(/N=C/c2ccc(-c3ccc(Cl)cc3)o2)C(=O)N1 | 1000 mg/kg | -74% | > 6000 mg/kg | 22 µmol/kg | ≥ 40% | <0.04 | > 1000 mg/kg | > 1000 mg/kg | 40 mg/kg |  |  |
| O=C1CN(/N=C/c2ccc(-c3ccc([N+](=O)[O-])cc3)o2)C(O)=N1 [DANTROLENE] | 83 mg/kg | -80% | > 7000 mg/kg | 7 µmol/kg | ≥ 40% | 2.7 | 490 mg/kg | 56 mg/kg | 153 mg/kg | 124 |  |
| Nc1ccc(-c2ccc(/C=N/N3C(=O)NC(=O)C3O)o2)cc1 (stereo not given) | > 1000 mg/kg | -67% | 192 mg/kg | 39 µmol/kg | ≥ 40% |  | > 1000 mg/kg | > 1000 mg/kg | > 1000 mg/kg |  |  |
| O=C1CN(/N=C/c2ccc(-c3cccc(C(F)(F)F)c3)o2)C(=O)N1 | 143 mg/kg | -74% | 274 mg/kg | 50 µmol/kg | ≥ 40% | 0.85 | 647 mg/kg | 184 mg/kg | 166 mg/kg | 1.4 |  |
| O=C1NC(=O)N(/N=C/c2ccc(-c3ccc(F)cc3)o2)C1O (stereo not given) | 1000 mg/kg | -53% | 784 mg/kg | 91 µmol/kg | ≥ 40% | <0.24 | > 1000 mg/kg | > 1000 mg/kg | 240 mg/kg |  |  |
| Nc1ccc(-c2ccc(/C=N/N3CC(=O)NC3=O)o2)cc1 | > 1000 mg/kg | -19% | 1040 mg/kg | > 129 µmol/kg |  |  | > 1000 mg/kg | > 1000 mg/kg | > 1000 mg/kg |  | inactive |
| O=C1NC(=O)N(/N=C/c2ccc(-c3cccc(C(F)(F)F)c3)o2)C1O (stereo not given) | 244 mg/kg | -57% | 563 mg/kg | 96 µmol/kg | ≥ 40% | <0.09 | 166 mg/kg | > 1000 mg/kg | 85 mg/kg |  |  |
| O=C1NC(=O)N(/N=C/c2ccc(-c3ccc([N+](=O)[O-])cc3)o2)C1O (stereo not given) | > 1000 mg/kg | -76% | > 5000 mg/kg | 15 µmol/kg | ≥ 40% | <0.17 | > 1000 mg/kg | > 1000 mg/kg | 171 mg/kg |  |  |
| O=C1CN(/N=C/c2ccc(-c3ccc(F)cc3)o2)C(=O)N1 | 105 mg/kg | -71% | 1400 mg/kg | 38 µmol/kg | ≥ 40% | 0.4 | 112 mg/kg | 950 mg/kg | 369 mg/kg | 1.5 |  |
| O=C1CN(/N=C/c2ccc(-c3ccc(Cl)c(Cl)c3)o2)C(=O)N1 [CLODANOLENE] | 647 mg/kg | -77% | > 7000 mg/kg | 10 µmol/kg | ≥ 40% | <0.18 | > 1000 mg/kg | > 1000 mg/kg | 181 mg/kg |  |  |
| CC(=O)Nc1ccc(-c2ccc(/C=N/N3C(=O)NC(=O)C3O)o2)cc1 (stereo not given) | > 1000 mg/kg | -10% | 673 mg/kg | > 107 µmol/kg |  |  | > 1000 mg/kg | > 1000 mg/kg | > 1000 mg/kg |  | inactive |
| O=C1NC(=O)N(/N=C/c2ccc(-c3ccc(Cl)cc3)o2)C1O (stereo not given) | > 1000 mg/kg | -77% | 522 mg/kg | 16 µmol/kg | ≥ 40% | <0.06 | > 1000 mg/kg | > 1000 mg/kg | 63 mg/kg |  |  |
| CC(=O)Nc1ccc(-c2ccc(/C=N/N3CC(=O)NC3=O)o2)cc1 | > 1000 mg/kg | 4% | 1140 mg/kg | > 112 µmol/kg |  |  | > 1000 mg/kg | > 1000 mg/kg | > 1000 mg/kg |  | inactive |
